Source: paper PMC6540285, “Evaluation of Protein Kinase Inhibitors with PLK4 Cross-Over Potential in a Pre-Clinical Model of Cancer” (International Journal of Molecular Sciences, 2019)

What was measured:
ALK C1156Y = ALK C1156Y (Homo sapiens, UniProt Q9UM73, C1156Y); test: SelectScreen kinase profiling, LanthaScreen binding
AXL = AXL (Homo sapiens, UniProt P30530); test: SelectScreen kinase profiling, ZLYTE; type: biochemical
BMPR1B (ALK6) = BMPR1B (ALK6) (Homo sapiens, UniProt O00238); test: SelectScreen kinase profiling, LanthaScreen binding
BRSK2 = BRSK2 (Homo sapiens, UniProt Q8IWQ3); test: as above; details: BRSK2, 10 µM
CDK11/cyclin C = CDK11/cyclin C (Homo sapiens, UniProt Q9BWU1); test: as above
CLK1 = CLK1 (Homo sapiens, UniProt P49759); test: SelectScreen kinase profiling, ZLYTE; type: biochemical; details: CLK1, 10 µM
DMPK = DMPK (Homo sapiens, UniProt Q09013); test: SelectScreen kinase profiling, LanthaScreen binding
EIF2AK2 (PKR) = EIF2AK2 (PKR) (Homo sapiens, UniProt P19525); test: as above
P450 2J2 = P450 2J2 (Homo sapiens, UniProt P51589)
FGFR1 = FGFR1 (Homo sapiens, UniProt P11362); test: SelectScreen kinase profiling, ZLYTE; type: biochemical; details: FGFR1, 10 µM
IRAK4 = IRAK4 (Homo sapiens, UniProt Q9NWZ3); test: SelectScreen kinase profiling, ZLYTE; type: biochemical; details: IRAK4, 10 µM
ITK = ITK (Homo sapiens, UniProt Q08881); test: SelectScreen kinase profiling, ZLYTE; type: biochemical
KIT D816H = KIT D816H (Homo sapiens, UniProt P10721, D816H); test: SelectScreen kinase profiling, LanthaScreen binding
KIT V559D = KIT V559D (Homo sapiens, UniProt P10721, V559D); test: SelectScreen kinase profiling, ZLYTE; type: biochemical
LRRK2 FL = LRRK2 FL (Homo sapiens, UniProt Q5S007); test: SelectScreen kinase profiling, Adapta; type: biochemical
MAP2K5 (MEK5) = MAP2K5 (MEK5) (Homo sapiens, UniProt Q13163); test: SelectScreen kinase profiling, LanthaScreen binding
MAPK15 (ERK7) = MAPK15 (ERK7) (Homo sapiens, UniProt Q8TD08); test: as above
MAPK8 (JNK1) = MAPK8 (JNK1) (Homo sapiens, UniProt P45983); test: SelectScreen kinase profiling, ZLYTE; type: biochemical
MAPK9 (JNK2) = MAPK9 (JNK2) (Homo sapiens, UniProt P45984); test: SelectScreen kinase profiling, LanthaScreen binding
MLK4 = MLK4 (Homo sapiens, UniProt Q5TCX8); test: as above; details: MLK4, 10 µM
NIM1K = NIM1K (Homo sapiens, UniProt Q8IY84); test: SelectScreen kinase profiling, ZLYTE; type: biochemical
NUAK1 (ARK5) = NUAK1 (ARK5) (Homo sapiens, UniProt O60285); test: SelectScreen kinase profiling, Adapta; type: biochemical
[1] = target: PIK3CA/PIK3R1 (p110 alpha/p85 alpha) (Homo sapiens, UniProt P42336); test: SelectScreen kinase profiling, Adapta; type: biochemical; details: PIK3CA/PIK3R1, 10 µM
PIP5K1B = PIP5K1B (Homo sapiens, UniProt O14986); test: SelectScreen kinase profiling, Adapta; type: biochemical
RET V804L = RET V804L (Homo sapiens, UniProt P07949, V804L); test: SelectScreen kinase profiling, ZLYTE; type: biochemical
ROS1 = ROS1 (Homo sapiens, UniProt P08922); test: SelectScreen kinase profiling, ZLYTE; type: biochemical; details: ROS1, 10 µM
RPS6KA2 (RSK3) = RPS6KA2 (RSK3) (Homo sapiens, UniProt Q15349); test: SelectScreen kinase profiling, ZLYTE; type: biochemical
SGK2 = SGK2 (Homo sapiens, UniProt Q9HBY8); test: SelectScreen kinase profiling, ZLYTE; type: biochemical; details: SGK2, 10 µM
STK32C (YANK3) = STK32C (YANK3) (Homo sapiens, UniProt Q86UX6); test: SelectScreen kinase profiling, LanthaScreen binding
Excerpt: (§1) Kinase Technology % Inhibition Avg Kinase Technology % Inhibition Avg […]

STK33 = STK33 (Homo sapiens, UniProt Q9BYT3); test: as above; details: STK33, 10 µM
Excerpt: as §1

STK38L (NDR2) = STK38L (NDR2) (Homo sapiens, UniProt Q9Y2H1); test: as above
Excerpt: as §1

TAOK3 (JIK) = TAOK3 (JIK) (Homo sapiens, UniProt Q9H2K8); test: as above
Excerpt: as §1

TEK (TIE2) R849W = TEK (TIE2) R849W (Homo sapiens, UniProt Q02763, R849W); test: as above
Excerpt: as §1

TLK2 = TLK2 (Homo sapiens, UniProt Q86UE8); test: as above; details: TLK2, 10 µM
Excerpt: as §1

TNK2 (ACK) = TNK2 (ACK) (Homo sapiens, UniProt Q07912); test: as above
Excerpt: as §1

TTK = TTK (Homo sapiens, UniProt P33981); test: as above
Excerpt: as §1

ULK2 = ULK2 (Homo sapiens, UniProt Q8IYT8); test: as above; details: ULK2, 10 µM
Excerpt: as §1

WNK2 = WNK2 (Homo sapiens, UniProt Q9Y3S1); test: as above; details: WNK2, 10 µM
Excerpt: as §1

WNK3 = WNK3 (Homo sapiens, UniProt Q9BYP7); test: as above; details: WNK3, 10 µM
Excerpt: as §1

ZAK = ZAK (Homo sapiens, UniProt Q9NYL2); test: as above
Excerpt: as §1

Sequence of LRRK2 FL (Q5S007 whole entry): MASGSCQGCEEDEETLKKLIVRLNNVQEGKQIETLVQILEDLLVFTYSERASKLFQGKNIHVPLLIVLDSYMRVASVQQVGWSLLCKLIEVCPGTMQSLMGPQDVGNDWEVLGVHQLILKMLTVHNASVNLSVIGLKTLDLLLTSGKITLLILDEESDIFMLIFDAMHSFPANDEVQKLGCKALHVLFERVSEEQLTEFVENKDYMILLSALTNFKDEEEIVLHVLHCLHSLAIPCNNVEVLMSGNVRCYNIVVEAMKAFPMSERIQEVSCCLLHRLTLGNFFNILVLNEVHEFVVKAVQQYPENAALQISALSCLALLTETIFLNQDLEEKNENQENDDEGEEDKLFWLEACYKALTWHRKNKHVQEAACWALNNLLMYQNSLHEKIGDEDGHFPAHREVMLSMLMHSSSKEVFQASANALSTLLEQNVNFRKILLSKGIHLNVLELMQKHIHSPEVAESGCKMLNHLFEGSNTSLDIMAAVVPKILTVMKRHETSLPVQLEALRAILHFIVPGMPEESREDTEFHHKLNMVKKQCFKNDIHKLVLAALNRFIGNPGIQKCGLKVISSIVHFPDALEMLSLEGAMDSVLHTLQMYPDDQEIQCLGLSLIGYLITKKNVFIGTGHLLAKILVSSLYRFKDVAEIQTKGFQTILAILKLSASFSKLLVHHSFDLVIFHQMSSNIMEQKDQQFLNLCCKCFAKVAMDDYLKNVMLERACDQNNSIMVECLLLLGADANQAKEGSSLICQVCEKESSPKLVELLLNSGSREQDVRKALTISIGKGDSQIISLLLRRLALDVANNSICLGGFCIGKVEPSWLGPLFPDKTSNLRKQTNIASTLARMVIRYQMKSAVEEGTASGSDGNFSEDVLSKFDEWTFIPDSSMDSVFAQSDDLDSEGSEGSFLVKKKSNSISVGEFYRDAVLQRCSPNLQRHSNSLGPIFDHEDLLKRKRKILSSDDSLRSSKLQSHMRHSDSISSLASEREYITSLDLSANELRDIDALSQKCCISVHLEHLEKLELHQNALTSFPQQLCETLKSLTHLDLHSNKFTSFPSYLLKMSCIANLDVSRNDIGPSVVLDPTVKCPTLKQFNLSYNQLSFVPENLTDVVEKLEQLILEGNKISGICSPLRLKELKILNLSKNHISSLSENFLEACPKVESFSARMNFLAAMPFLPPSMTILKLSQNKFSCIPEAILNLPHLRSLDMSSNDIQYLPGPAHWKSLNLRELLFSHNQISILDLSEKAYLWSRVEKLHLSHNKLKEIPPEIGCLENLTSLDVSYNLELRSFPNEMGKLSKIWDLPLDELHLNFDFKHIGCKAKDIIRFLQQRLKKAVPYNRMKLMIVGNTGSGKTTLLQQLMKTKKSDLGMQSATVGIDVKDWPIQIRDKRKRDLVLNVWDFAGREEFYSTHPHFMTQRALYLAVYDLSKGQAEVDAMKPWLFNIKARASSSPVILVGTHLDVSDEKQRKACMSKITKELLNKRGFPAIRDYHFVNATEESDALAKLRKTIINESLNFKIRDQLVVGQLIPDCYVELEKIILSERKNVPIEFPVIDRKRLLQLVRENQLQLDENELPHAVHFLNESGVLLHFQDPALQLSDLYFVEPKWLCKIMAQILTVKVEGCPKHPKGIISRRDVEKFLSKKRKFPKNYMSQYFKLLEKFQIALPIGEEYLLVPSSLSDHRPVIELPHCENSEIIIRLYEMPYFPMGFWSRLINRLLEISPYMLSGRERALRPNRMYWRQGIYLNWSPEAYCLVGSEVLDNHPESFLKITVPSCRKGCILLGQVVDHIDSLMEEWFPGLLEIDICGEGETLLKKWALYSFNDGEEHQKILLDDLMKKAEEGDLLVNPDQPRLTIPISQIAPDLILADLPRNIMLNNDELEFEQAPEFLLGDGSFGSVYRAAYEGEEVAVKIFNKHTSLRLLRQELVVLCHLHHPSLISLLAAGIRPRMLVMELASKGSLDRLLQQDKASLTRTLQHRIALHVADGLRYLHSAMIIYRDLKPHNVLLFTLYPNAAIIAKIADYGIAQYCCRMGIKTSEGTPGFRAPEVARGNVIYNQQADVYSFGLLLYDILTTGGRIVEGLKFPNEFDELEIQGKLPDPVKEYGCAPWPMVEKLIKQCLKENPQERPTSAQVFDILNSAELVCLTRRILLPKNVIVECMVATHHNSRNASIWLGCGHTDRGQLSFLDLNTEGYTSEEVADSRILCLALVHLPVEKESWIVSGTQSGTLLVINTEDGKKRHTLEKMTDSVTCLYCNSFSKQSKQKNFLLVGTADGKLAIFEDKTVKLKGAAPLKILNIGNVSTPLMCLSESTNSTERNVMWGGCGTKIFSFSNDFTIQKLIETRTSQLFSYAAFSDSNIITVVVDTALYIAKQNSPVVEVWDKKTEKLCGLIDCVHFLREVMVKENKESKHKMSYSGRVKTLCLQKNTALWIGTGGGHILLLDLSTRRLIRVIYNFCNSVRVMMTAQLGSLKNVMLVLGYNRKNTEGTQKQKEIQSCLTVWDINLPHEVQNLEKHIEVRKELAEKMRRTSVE
Sequence of WNK3 (Q9BYP7 whole entry): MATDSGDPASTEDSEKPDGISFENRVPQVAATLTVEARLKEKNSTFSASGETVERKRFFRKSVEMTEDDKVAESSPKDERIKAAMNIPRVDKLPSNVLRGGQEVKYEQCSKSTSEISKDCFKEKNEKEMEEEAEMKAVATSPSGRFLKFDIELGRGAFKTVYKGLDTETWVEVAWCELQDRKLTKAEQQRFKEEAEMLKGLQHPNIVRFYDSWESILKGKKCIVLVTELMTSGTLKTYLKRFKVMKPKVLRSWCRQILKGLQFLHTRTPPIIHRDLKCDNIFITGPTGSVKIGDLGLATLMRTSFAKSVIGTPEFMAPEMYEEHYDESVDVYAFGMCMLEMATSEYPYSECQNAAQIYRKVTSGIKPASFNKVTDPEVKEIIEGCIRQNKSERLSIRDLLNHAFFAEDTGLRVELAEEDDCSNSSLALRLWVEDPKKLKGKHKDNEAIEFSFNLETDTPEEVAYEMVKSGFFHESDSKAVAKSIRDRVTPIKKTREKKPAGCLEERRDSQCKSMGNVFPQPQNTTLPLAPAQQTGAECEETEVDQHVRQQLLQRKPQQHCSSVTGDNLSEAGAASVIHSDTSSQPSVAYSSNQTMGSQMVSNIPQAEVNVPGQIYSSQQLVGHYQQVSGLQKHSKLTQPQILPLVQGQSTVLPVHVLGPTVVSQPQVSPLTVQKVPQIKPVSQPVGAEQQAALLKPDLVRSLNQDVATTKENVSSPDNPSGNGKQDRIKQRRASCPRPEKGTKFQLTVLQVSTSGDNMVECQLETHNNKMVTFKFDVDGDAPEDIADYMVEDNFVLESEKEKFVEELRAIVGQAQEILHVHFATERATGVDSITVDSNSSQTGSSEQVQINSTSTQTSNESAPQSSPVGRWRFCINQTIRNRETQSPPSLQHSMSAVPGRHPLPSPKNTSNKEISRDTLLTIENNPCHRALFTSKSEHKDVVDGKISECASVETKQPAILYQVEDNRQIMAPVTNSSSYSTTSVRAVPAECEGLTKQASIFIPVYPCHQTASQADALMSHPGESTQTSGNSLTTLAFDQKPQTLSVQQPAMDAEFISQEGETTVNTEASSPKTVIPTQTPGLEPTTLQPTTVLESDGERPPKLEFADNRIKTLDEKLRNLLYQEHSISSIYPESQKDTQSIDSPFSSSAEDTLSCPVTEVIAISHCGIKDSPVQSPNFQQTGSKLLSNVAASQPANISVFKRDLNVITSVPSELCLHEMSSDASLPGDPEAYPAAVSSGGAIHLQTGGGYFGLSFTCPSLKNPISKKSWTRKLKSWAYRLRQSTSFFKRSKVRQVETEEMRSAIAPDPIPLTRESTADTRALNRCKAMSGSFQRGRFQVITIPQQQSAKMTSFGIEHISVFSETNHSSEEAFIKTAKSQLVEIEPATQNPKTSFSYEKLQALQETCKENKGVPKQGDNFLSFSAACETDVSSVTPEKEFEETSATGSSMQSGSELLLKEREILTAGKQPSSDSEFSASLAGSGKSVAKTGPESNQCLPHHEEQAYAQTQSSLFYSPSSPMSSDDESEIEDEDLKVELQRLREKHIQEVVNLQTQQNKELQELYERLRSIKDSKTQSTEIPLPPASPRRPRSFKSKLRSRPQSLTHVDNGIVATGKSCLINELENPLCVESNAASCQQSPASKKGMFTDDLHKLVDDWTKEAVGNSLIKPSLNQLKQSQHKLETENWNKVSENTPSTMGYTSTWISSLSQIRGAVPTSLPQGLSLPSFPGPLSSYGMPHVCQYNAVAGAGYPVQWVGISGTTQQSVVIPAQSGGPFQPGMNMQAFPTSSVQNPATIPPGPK
Sequence of DMPK (Q09013 whole entry): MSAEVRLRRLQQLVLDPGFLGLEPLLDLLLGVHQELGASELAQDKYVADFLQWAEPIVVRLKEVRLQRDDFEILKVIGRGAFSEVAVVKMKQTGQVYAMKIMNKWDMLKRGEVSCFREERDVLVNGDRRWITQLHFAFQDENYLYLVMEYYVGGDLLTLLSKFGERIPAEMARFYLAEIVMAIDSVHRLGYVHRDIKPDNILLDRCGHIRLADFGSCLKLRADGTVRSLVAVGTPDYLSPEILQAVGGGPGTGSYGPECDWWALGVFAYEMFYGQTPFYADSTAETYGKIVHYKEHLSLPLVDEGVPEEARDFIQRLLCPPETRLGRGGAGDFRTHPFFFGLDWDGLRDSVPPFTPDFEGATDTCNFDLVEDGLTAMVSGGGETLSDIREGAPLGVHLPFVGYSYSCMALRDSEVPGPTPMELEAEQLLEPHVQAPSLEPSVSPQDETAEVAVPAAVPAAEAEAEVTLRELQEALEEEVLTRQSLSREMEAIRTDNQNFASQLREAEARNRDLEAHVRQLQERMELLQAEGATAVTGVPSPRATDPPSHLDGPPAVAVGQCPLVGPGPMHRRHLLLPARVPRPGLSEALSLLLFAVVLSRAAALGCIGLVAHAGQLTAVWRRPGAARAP

## O=C(c1ccc(/C=C/c2n[nH]c3ccccc23)cc1)N1CCNCC1 [KW-2449]
ALK C1156Y
  inhibition at 10 µM: 76%
AXL
  inhibition at 10 µM: 95%
BMPR1B (ALK6)
  inhibition at 10 µM: 90%
BRSK2
  inhibition at 10 µM: 7%
CDK11/cyclin C
  inhibition at 10 µM: 53%
CLK1
  inhibition at 10 µM: 99%
DMPK
  inhibition at 10 µM: 77%
EIF2AK2 (PKR)
  inhibition at 10 µM: 7%
P450 2J2
  IC50: 0.249 µM
FGFR1
  inhibition at 10 µM: 96%
IRAK4
  inhibition at 10 µM: 77%
ITK
  inhibition at 10 µM: 99%
KIT D816H
  inhibition at 10 µM: 42%
KIT V559D
  inhibition at 10 µM: 91%
LRRK2 FL
  inhibition at 10 µM: 100%
MAP2K5 (MEK5)
  inhibition at 10 µM: 84%
MAPK15 (ERK7)
  inhibition at 10 µM: -49%
MAPK8 (JNK1)
  inhibition at 10 µM: 96%
MAPK9 (JNK2)
  inhibition at 10 µM: 79%
MLK4
  inhibition at 10 µM: 17%
NIM1K
  inhibition at 10 µM: 79%
NUAK1 (ARK5)
  inhibition at 10 µM: 100%
[1]
  inhibition at 10 µM: 11%
PIP5K1B
  inhibition at 10 µM: 32%
RET V804L
  inhibition at 10 µM: 100%
ROS1
  inhibition at 10 µM: 98%
RPS6KA2 (RSK3)
  inhibition at 10 µM: 96%
SGK2
  inhibition at 10 µM: 95%
STK32C (YANK3)
  inhibition at 10 µM: 62%
STK33
  inhibition at 10 µM: 81%
STK38L (NDR2)
  inhibition at 10 µM: 59%
TAOK3 (JIK)
  inhibition at 10 µM: 25%
TEK (TIE2) R849W
  inhibition at 10 µM: -5%
TLK2
  inhibition at 10 µM: 33%
TNK2 (ACK)
  inhibition at 10 µM: 71%
TTK
  inhibition at 10 µM: 54%
ULK2
  inhibition at 10 µM: 56%
WNK2
  inhibition at 10 µM: 1%
WNK3
  inhibition at 10 µM: 7%
ZAK
  inhibition at 10 µM: 77%
